Series [1] concerns LvM3b cells. Description: Liver metastasis in mice injected with LvM3b cells, treated by daily intra-peritoneal injection, bioluminescent imaging. The class given is in vivo. As to the method: Mice were treated with 10 mg of cyclocreatine or saline vehicle, administered through intra-peritoneal injection. The treatment regime started one day after inoculation of tumor cells and continued until the mice were euthanized. Beta-guanidipropionic acid was administered at a dose of 200 ul of 0.5M solution through intra-peritoneal injection. Treatment regime were as that for cyclocreatine treatment.
Finally, assays were carried out to determine the impact of small-molecule inhibition of CKB and restriction of creatine availability on colon cancer metastasis. Cyclocreatine, which resembles phosphocreatine, is a transition-state analog for creatine kinases. To examine the effect of cyclocreatine, bioluminescent measurements of liver metastasis were carried out in mice injected with 5×10^5 LvM3b cells and treated with cyclocreatine daily for two weeks. The mice were then euthanized and livers excised for ex vivo imaging at the end of the treatment.
Similar assays were carried out using a creatine transporter inhibitor beta-guanidinopropionic acid (B-GPA). Bioluminescent measurements were used to examine liver metastasis in mice injected with 5×10^5 LvM3b cells and treated with B-GPA daily for two weeks.
In this example, assays were carried out to confirm the therapeutic potential of targeting the creatine transporter channel SLC6a8 by administering the small molecule B-GPA, which is an inhibitor of SLC6a8. […] To confirm this therapeutic effect, mice injected with LvM3b colon cancer cells we treated with either B-GPA or control vehicle (PBS) via intra-peritoneal injection daily for three weeks (FIG. 2). The mice were euthanized at three weeks and liver extracted for bioluminescent imaging and gross histology.
More specifically, the average photon flux ratios as measure by the bioluminescence imaging for the control group (without treatment of B-GPA) and the treated groups were about 800 and 100, respectively.

Series [2] has as its target T1, SLC6a8 (Homo sapiens, UniProt P48029).
T1 sequence (P48029 1-635): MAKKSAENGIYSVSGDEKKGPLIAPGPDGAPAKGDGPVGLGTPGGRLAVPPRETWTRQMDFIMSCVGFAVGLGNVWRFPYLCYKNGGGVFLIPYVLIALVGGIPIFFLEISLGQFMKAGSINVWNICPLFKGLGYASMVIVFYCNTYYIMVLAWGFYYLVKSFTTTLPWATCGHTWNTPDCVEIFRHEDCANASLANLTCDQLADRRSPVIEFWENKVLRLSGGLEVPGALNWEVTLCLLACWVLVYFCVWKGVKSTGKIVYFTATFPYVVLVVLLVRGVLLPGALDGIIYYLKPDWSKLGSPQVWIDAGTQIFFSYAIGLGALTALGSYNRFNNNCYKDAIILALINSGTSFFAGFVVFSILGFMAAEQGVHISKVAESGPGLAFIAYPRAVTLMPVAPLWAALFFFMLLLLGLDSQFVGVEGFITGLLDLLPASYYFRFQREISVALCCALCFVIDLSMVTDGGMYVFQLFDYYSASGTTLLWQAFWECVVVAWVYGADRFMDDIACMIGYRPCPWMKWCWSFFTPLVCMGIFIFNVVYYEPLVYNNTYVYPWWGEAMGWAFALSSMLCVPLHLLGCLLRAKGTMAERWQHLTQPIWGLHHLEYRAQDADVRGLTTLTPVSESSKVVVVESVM
The experiment in a line: Liver metastasis by LvM3b cells expressing shRNA targeting SLC6a8. Particulars: three weeks after inoculation. On the set-up: endogenous in cells; host or cells: LvM3b colon cancer cells (derivative of LS-174T) injected into mice. The class given is in vivo, mice. As to the method:
(§1) pLKO vectors expressing shRNA hairpins targeting CKB and SLC6a8 were ordered from Sigma-Aldrich. Two independent hairpins that gave the best knockdown of transcript levels were used for all experiments. These hairpin DNA and RNA sequences are listed below:
Briefly, mice were injected with LvM3b colon cancer cells expressing either of two independent short hairpin RNAs (shSLC6a8 #4 or shSLC6a8 #5) targeting the creatine transporter channel SLC6a8 or with control RNA (empty pLKO vector, ordered from Sigma Aldrich) (FIG. 3a). Again, liver metastasis was monitored by bioluminescent imaging and mice were euthanized three weeks after inoculation of cancer cells. Livers were extracted for gross histology.

Series [3] deals with LvM3b cells. Description: Liver metastasis in mice injected with LvM3b cells with or without CKB knockdown, pre-treated with metabolite. The following applies: for rescue of metastasis suppression upon CKB knockdown: LvM3b cells with CKB knockdown, pre-treated 10 uM, day 21. It is filed as in vivo. The source says: CKB is known to regulate the reservoir of rapidly mobilized high-energy phosphates in tissues such as the brain and kidneys by catalyzing the transfer of a high-energy phosphate group from phosphocreatine to ADP, yielding ATP and creatine. It was hypothesized that CKB generation of ATP from phosphocreatine might provide colon cancer cells with an energetic advantage during hepatic colonization. To determine if ATP, the end-product of CKB catalysis, could rescue metastasis suppression seen upon CKB knockdown, CKB knockdown cells were loaded with ATP prior to injection of cells in experimental metastasis assays. Briefly, liver metastasis was examined in mice injected with 5×10^5 LvM3b with or without CKB knockdown and pre-treated with 100 uM ATP or vehicle. Metastatic burden was monitored by bioluminescent imaging and mice euthanized 21 days after injection.
Similar studies were done to determine whether creatine and phosphocreatine could rescue the phenotype of seen upon CKB knock-down. More specifically, assays were performed to examine liver metastasis in mice injected with 5×10^5 LvM3b cells pre-treated with 10 uM creatine, in the background of CKB knockdown. The mice were then euthanized as described above and liver extracted for ex vivo bioluminescent imaging at day 21 after injection. Also, colorectal cancer metastasis was examined in mice injected with 5×10^5 LvM3b cells with CKB knockdown and pre-treated with 10 uM creatine-phosphate. Liver metastasis was monitored by bioluminescent imaging and mice were euthanized as described above.

In series [4] the test system is PANC1 pancreatic cancer cells. Description: Survival of PANC1 cells pre-treated with B-GPA in immunodeficient mice, bioluminescence imaging. Particulars: PANC1 cells pre-treated 10 mM 48 hours. The class given is in vivo. As to the method: Briefly, PANC1 pancreatic cancer cells were incubated for 48 hours with and without the presence of 10 mM of B-GPA, then injected into immunodeficient mice (5×10^5 PANC1 cells each mouse; 4 mice each in the treated and untreated cohort). The mice were imaged with bioluminescence imaging on day 1 after injection and signal was normalized to day zero. […] More specifically, the average photon flux ratios as measure by the bioluminescence imaging for the control group (without treatment of B-GPA) and the treated groups were about 2.7 and 1.6, respectively.

The subject of series [5] is PANC1 pancreatic cancer cells. The experiment in a line: Cell viability of PANC1 cells, WST-1 reagent, Gemcitabine with or without B-GPA. It is filed as cell-based, human. The following applies: 10 mM B-GPA, 48 hours, Gemcitabine 1 nm-1000000 nm. As to the method: Briefly, 10000 PANC1 cells were seeded in triplicate in 96-well plates and treated with various concentrations of Gemcitabine (1 nm, 10 nm, 100 nm, 1000 nm, 10000 nm, 100000 nm, and 1000000 nm) with or without 10 mM of B-GPA for 48 hours. Cell viability was then assayed using the WST-1 reagent (Roche Applied Science), with absorbance at 440 nm an indicator of the number of viable cells.
(Tetrazolium assays rely on reduction of a dye to a coloured formazan, in cell work by metabolically active cells.)

Series [6] concerns Ls-LvM3b colon cancer cells. Description: Cell viability of Ls-LvM3b cells, WST-1 reagent, 5'-Fluorouracil with or without B-GPA. The following applies: 10 mM B-GPA, 48 hours. It is filed as cell-based, human. As to the method:
To that end, 10,000 Ls-LvM3b cells were seeded in triplicate in 96-well plates and treated with various concentrations of 5′-Fluorouracil with or without 10 mM of B-GPA for 48 hours. Cell viability was assayed in the same manner described above with absorbance at 440 nm an indicator of the number of viable cells.

For series [7], the target named is T1, SLC6a8. Description: Liver metastasis by SW480 cells expressing shRNA targeting SLC6a8. It is filed as in vivo, mice. Particulars: 5×10^5 SW480 cells; 28 days. As to the method:
as §1
To further confirm the therapeutic benefit of knockdown of SLC6a8, another independent colon cancer cell line (SW480 colon cancer cell line) expressing a short hairpin RNA targeting SLC6a8 (shSLC6a8 #2) was injected into mice (FIG. 3b).

Series [8] concerns the target T1, SLC6a8. The experiment in a line: Liver metastasis by PANC1 cells expressing shRNA targeting SLC6a8. It is filed as in vivo, mice. Particulars: at 28 days.
From the text: as §1
Lastly, the therapeutic benefit of targeting SLC6a8 was investigated in pancreatic cancer cells. To accomplish this, PANC1 pancreatic cancer cells expressing either an shRNA targeting SLC6a8 (shSLC6a8 #5) or a control RNA (empty pLKO vector) were injected into mice. Metastatic progression was monitored by bioluminescent imaging and mice were euthanized in the same manner described above.

Where [9] appears, read: 5×10^5 LvM3b cells, treated daily for two weeks.

Take `NC1=NCCN1CC(=O)O` [cyclocreatine]: in series [1] (setting [9]), the “comparison with standard-of-care FOLFOX chemotherapy” value is given as “superior to the current standard-of-care FOLFOX chemotherapy” and the “metastatic colonization (liver metastasis, bioluminescence)” value is on record as “significantly reduced metastatic colonization”.
“shSLC6a8 #4: short hairpin RNA targeting SLC6a8, SEQ ID NO 13 (DNA) / 17 (RNA) (CCGGCUUAUUCCCUACGUCCUGAUCCUCGAGGAUCAGGACGUAGGGAAUAAGUUUUUG; listed as RNA, chemistry not fully specified)”: in series [2], the “colon cancer metastasis (liver)” value was “inhibition of colon cancer metastasis”.
Regarding `Nc1ncnc2c1ncn2[C@@H]1O[C@H](COP(=O)(O)OP(=O)(O)OP(=O)(O)O)[C@@H](O)[C@H]1O` [ATP], the “enhancement of suppressed metastasis phenotype” value in series [3] (LvM3b cells depleted of CKB, pre-treated 100 uM, 21 days) is listed as “more than 10 folds”. Further, in series [3] (LvM3b control hairpin cells, pre-treated 100 uM), the “metastatic activity of cells expressing a short-hairpin control” value is listed as “did not enhance the metastatic activity”.
On to creatine-phosphate, for which the “rescue of metastasis suppression upon CKB knockdown” value in series [3] is given as “rescued metastasis suppression”.
On to `N=C(N)NCCC(=O)O` [B-GPA, beta-guanidinopropionic acid], for which the “metastatic colonization (liver metastasis, bioluminescence)” value in series [1] (setting [9]) is recorded as “significantly reduced metastatic colonization”. The “average photon flux ratio (bioluminescence imaging)” value was about 100 in series [1] (LvM3b cells, daily for three weeks, control group about 800) and about 1.6 in series [4] (day 1 normalized to day zero, control group about 2.7). Moreover, the “colon cancer metastasis to the liver” value in series [1] (LvM3b cells, intra-peritoneal injection daily for three weeks, P<0.05) is recorded as “significant reduction”. The “tumor burden of pancreatic cancer cells in vivo” value in series [4] (one day after injection, P<0.05) is recorded as “significant reduction”. Further, the “effect on cytotoxic activity of Gemcitabine” value in series [5] was “enhanced the cytotoxic activity”. Besides, the “effect on cytotoxic activity of 5'-Fluorouracil” value in series [6] is recorded as “enhanced the cytotoxic activity”.
As to `CN(CC(=O)O)C(=N)N` [creatine], the “rescue of metastasis suppression upon CKB knockdown” value in series [3] is “rescued metastasis suppression”.
“shSLC6a8 #2: short hairpin RNA targeting SLC6a8, SEQ ID NO 19 (DNA) / 20 (RNA) (CCGGGCUGGUCUACAACAACACCUACUCGAGUAGGUGUUGUUGUAGACCAGCUUUUUG; listed as RNA, chemistry not fully specified)”: the “metastasis of SW480 colon cancer cells” value in series [7] is given as “significantly inhibited metastasis”.
Turning to “shSLC6a8 #5: short hairpin RNA targeting SLC6a8, SEQ ID NO 14 (DNA) / 18 (RNA) (CCGGAUUACCUGGUCAAGUCCUUUACUCGAGUAAAGGACUUGACCAGGUAAUUUUUUG; listed as RNA, chemistry not fully specified)”, in series [8], the pancreatic cancer metastasis result is on record as “significant reduction in pancreatic cancer metastasis”. Also, the “colon cancer metastasis (liver)” value in series [2] is “inhibition of colon cancer metastasis”.

For the origin of these results see US10406128B2, “Treatment and diagnosis of colon cancer” (The Rockefeller University, priority 2012, dated 2019).
